Measurements reported in publication PMC9890180, “Structural diversity-guided optimization of carbazole derivatives as potential cytotoxic agents” (Frontiers in Chemistry, 2023).
Like-named read-outs stand apart in the source and are kept apart here.

How the values were obtained:
[1] = tested on: 7901, A875 and MARC145 cell lines; experiment: In vitro cytotoxicity MTT assay, overall rating over the tested cell lines; assay type: cell-based
Method: The relationship between concentration and inhibition rate is the key to whether a potential compound can be use as potential medicinal agents. It is very important to maintain good activity at low concentration. Based on the preliminary screening data, in order to verify the effect of concentration on the potential cytotoxic activities for all compounds, the inhibition activity data of the compounds at different concentrations were detected using the same method. All experiments were carried out on three kinds of cell lines with six concentrations of 40, 20, 10, 5, 1, and 0.5 μg/mL. The inhibition activities for highly potential compounds 7b, 11a, 11b, 14a, and 14b were described in Figure 4.

[2] = tested on: 7901 (human gastric adenocarcinoma cells); experiment: In vitro cytotoxicity MTT assay, 7901 cells; details: for IC50 / inhibition at 40 µg/mL: Homo sapiens; for inhibition at 40 µg/mL: read-out: in vitro inhibition rate on 7901
Method: (§1) The in vitro cytotoxicity of these carbazole derivatives against human melanoma (A875), human gastric adenocarcinoma cells (7901), and a subclone of African green monkey kidney cell line MA-104 (MARC145) cell lines was evaluated using the MTT assay. Briefly, A875, 7901, and MARC145 cells were seeded at 2 × 10^4 cells per well in 96-well plates and grown to subconfluence. After removal of the growth medium, six serial dilutions of each tested compound in 200 µL test medium were added. Plates were incubated at 37°C in a humidified atmosphere containing 5% CO2. After 72 h of exposure, the culture medium was removed and 30 µL of the MTT solution (5 mg/mL in PBS) was added to each well. The plate was further incubated for 4 h to allow MTT formazan formation. To dissolve the resulting MTT formazan, 50 µL of DMSO was added to each well, followed by thorough mixing with a microplate shaker. Absorbance at 570 nm was measured on a microplate reader (Thermo Scientific, MK3). All data were analyzed with SPSS software, and the 50% inhibitory concentrations (IC50) of each compound for the different cell lines were determined. All assays were performed in triplicate on three independent experiments.

A875 (human melanoma) [3] = experiment: In vitro cytotoxicity MTT assay, A875 cells; details: for IC50 / inhibition at 40 µg/mL: Homo sapiens; for inhibition at 40 µg/mL: A875, read-out: in vitro inhibition rate on A875
Method: as §1

[4] = In vitro cytotoxicity MTT assay, MARC145 cells; details: African green monkey, MARC145 cells (subclone of kidney cell line MA-104)
Method: as §1

[5] = tested on: MARC145 (a subclone of African green monkey kidney cell line MA-104); experiment: In vitro cytotoxicity MTT assay, MARC145 cells; details: preliminary screening, 40 μg/mL
Method: as §1

[6] = tested on: 7901 (human gastric adenocarcinoma cells)
Method: as §1

A875 (human melanoma) [7] = tested on: A875 (human melanoma)
Method: as §1

[8] = tested on: MARC145 (a subclone of African green monkey kidney cell line MA-104)
Method: as §1

A875 (human melanoma) [9] = tested on: A875 (human melanoma); parameters: method as in Huang et al., 2021; details: previous work; ref Huang et al., 2021; read-out: IC50 against A875; cited from earlier work
[10] = tested on: MARC145 (a subclone of African green monkey kidney cell line MA-104); parameters: method as in Huang et al., 2021; details: previous work; ref Huang et al., 2021; cited from earlier work
[11] = 72 h, read-out: In vitro cytotoxicity IC50, 7901
[12] = A875, 72 h, read-out: In vitro cytotoxicity IC50, A875
[13] = A875, read-out: A875 IC50 (Figure 5)

Compound | Inhibitory activity on tested cells, in words [1] | melting point [°C] | IC50 [2, 11] [µM] | IC50 (A875 (human melanoma) [3]; [12]) [µM] | IC50 at 72 h [4] [µM] | further results
CC(C(=O)Nc1ccccc1NS(C)(=O)=O)c1ccc2c(c1)[nH]c1ccc(Cl)cc12 (stereo not drawn) [Compound 11a, 2-(6-Chloro-9H-carbazol-2-yl)-N-(2-(methylsulfonamido)phenyl)propanamide] | good inhibition activities on all tested cells | 163 | 21.9 ± 3.05 | 36.7 ± 2.96 | 22.9 ± 14.3 | inhibition at 40 µg/mL [2]: > 70%; inhibition at 40 µg/mL (A875 (human melanoma) [3]): > 70%; Toxicity to normal cells MARC-145 compared with cancer cells, in words [5]: less toxicity to normal cells MARC-145 than cancer cells
CC(C(=O)NN=CC=Cc1ccc(Cl)cc1)c1ccc2c(c1)[nH]c1ccc(Cl)cc12 (stereo not drawn) [Compound 14b, 2-(6-Chloro-9H-carbazol-2-yl)-N'-(3-(4-chlorophenyl)allylidene)propanehydrazide] | good inhibition activities on all tested cells | 186 | 18.9 ± 2.64 | 45.6 ± 30.6 | 19.6 ± 6.94 | inhibition at 40 µg/mL [2]: > 70%; inhibition at 40 µg/mL (A875 (human melanoma) [3]): > 70%
COc1cc(C=NNC(=O)C(C)c2ccc3c(c2)[nH]c2ccc(Cl)cc23)ccc1O (stereo not drawn) [Compound 14e, 2-(6-Chloro-9H-carbazol-2-yl)-N'-(4-hydroxy-3-methoxybenzylidene)propanehydrazide] | almost lost its activity | 239 |  | > 40 | > 40 | IC50 ([2]; read-out: 7901 IC50 (Figure 5)): > 100 µM; IC50 (A875 (human melanoma) [3]; [13]): > 100 µM
Cc1c(C(=O)NN(C(=O)c2ccccc2)C(C)(C)C)ccc2c1[nH]c1ccccc12 [Compound 7c, N'-Benzoyl-N'-(tert-butyl)-1-methyl-9H-carbazole-2-carbohydrazide] |  | 212 |  | > 40 | 58.4 ± 31.6 | 
CC(C(=O)NCCS(C)(=O)=O)c1ccc2c(c1)[nH]c1ccc(Cl)cc12 (stereo not drawn) [Compound 11d, 2-(6-Chloro-9H-carbazol-2-yl)-N-(2-(methylsulfonyl)ethyl)propanamide] | lost activity | 149 |  | > 40 | > 40 | 
Cc1c(C(=O)NCC(=O)c2ccccc2)ccc2c1[nH]c1ccccc12 [Compound 7e, 1-Methyl-N-(2-oxo-2-phenylethyl)-9H-carbazole-2-carboxamide] |  | 153 |  | > 40 | 62.6 ± 28.2 | 
COc1cccc(C=NNC(=O)C(C)c2ccc3c(c2)[nH]c2ccc(Cl)cc23)c1O (stereo not drawn) [Compound 14a, 2-(6-Chloro-9H-carbazol-2-yl)-N'-(2-hydroxy-3-methoxybenzylidene)propanehydrazide] | good inhibition activities on all tested cells | 217 | 11.8 ± 1.26 | 9.77 ± 8.32 | 7.47 ± 4.15 | Inhibition activity at low concentration, in words ([1]; concentration of 5 μg/mL): good activity; inhibition at 40 µg/mL [2]: > 70%; IC50 (A875 (human melanoma) [3]; [13]): 9.77 ± 8.33 µM; inhibition at 40 µg/mL (A875 (human melanoma) [3]): > 70%; Toxicity to normal cells MARC-145 compared with cancer cells, in words [5]: less toxicity to normal cells MARC-145 than cancer cells
Cc1c(C(=O)Nc2ccc(S(=O)(=O)Nc3ccccc3Oc3ccccc3)cc2)ccc2c1[nH]c1ccccc12 [Compound 7a, 1-Methyl-N-(4-(N-(2-phenoxyphenyl)sulfamoyl)phenyl)-9H-carbazole-2-carboxamide] |  | 78 | 64.7 ± 15.1 | 33.5 ± 1.63 | 51.5 ± 9.24 | 
CC(C(=O)NN=Cc1c[nH]c2ccccc12)c1ccc2c(c1)[nH]c1ccc(Cl)cc12 (stereo not drawn) [Compound 14d, N'-((1H-Indol-3-yl)methylene)-2-(6-chloro-9H-carbazol-2-yl)propanehydrazide] |  | 209 |  | 37.6 ± 8.15 | 42.4 ± 4.58 | 
CC(C(=O)Nc1ccc(S(=O)(=O)Nc2ncccn2)cc1)c1ccc2c(c1)[nH]c1ccc(Cl)cc12 (stereo not drawn) [Compound 11e, 2-(6-Chloro-9H-carbazol-2-yl)-N-(4-(N-(pyrimidin-2-yl)sulfamoyl)phenyl)propanamide] |  | 157 |  | > 40 | > 40 | 
2-(6-Chloro-9H-carbazol-2-yl)-N-(2-((dimethylphosphoryl)amino)phenyl)propanamide [Compound 11b] | good inhibition activities on all tested cells |  |  |  |  | IC50 [6]: 20.6 ± 3.3 µM; IC50 (A875 (human melanoma) [7]): 33.6 ± 9.48 µM; IC50 [8]: 17.3 ± 7.25 µM; in vitro inhibition rate on 7901 ([2]; concentration of 40 μg/mL): > 70%; in vitro inhibition rate on A875 (A875 (human melanoma) [3]; concentration of 40 μg/mL): > 70%
Cc1ccc(S(=O)(=O)N(NC(=O)c2ccc3c([nH]c4ccccc43)c2C)C(C)(C)C)cc1 [Compound 7d, N-(tert-Butyl)-4-methyl-N'-(1-methyl-9H-carbazole-2-carbonyl)benzenesulfonohydrazide] | decreases significantly | 97 | 34.5 ± 9.9 | > 40 | 18.7 ± 4.16 | 
CC(C(=O)NN=Cc1ccc(Cl)cc1)c1ccc2c(c1)[nH]c1ccc(Cl)cc12 (stereo not drawn) [Compound 14f, 2-(6-Chloro-9H-carbazol-2-yl)-N'-(4-chlorobenzylidene)propanehydrazide] |  | 218 |  | > 40 | > 40 | IC50 ([2]; read-out: 7901 IC50 (Figure 5)): > 100 µM; IC50 (A875 (human melanoma) [3]; [13]): > 100 µM
CC(C(=O)NN=Cc1ccc(Cl)cc1Cl)c1ccc2c(c1)[nH]c1ccc(Cl)cc12 (stereo not drawn) [Compound 14g, 2-(6-Chloro-9H-carbazol-2-yl)-N'-(2,4-dichlorobenzylidene)propanehydrazide] |  | 241 | 38.8 ± 2.74 | > 40 | 96.3 ± 63.3 | 
Cc1c(C(=O)Nc2ccc(S(=O)(=O)Nc3ccc(Cl)nc3)cc2)ccc2c1[nH]c1ccccc12 [Compound 7b, N-(4-(N-(6-Chloropyridin-3-yl)sulfamoyl)phenyl)-1-methyl-9H-carbazole-2-carboxamide] | moderate inhibitory activity | 93 | 58.1 ± 11.3 | 23 ± 16.9 | 58.9 ± 16.7 | inhibition at 40 µg/mL [2]: > 70%; inhibition at 40 µg/mL (A875 (human melanoma) [3]): > 70%; Toxicity to normal cells MARC-145 compared with cancer cells, in words [5]: less toxicity to normal cells MARC-145 than cancer cells
Cc1ccc(NNC(=O)C(C)c2ccc3c(c2)[nH]c2ccc(Cl)cc23)cc1 (stereo not drawn) [Compound 11c, 2-(6-Chloro-9H-carbazol-2-yl)-N'-(p-tolyl)propanehydrazide] |  | 188 |  | > 40 | 64 ± 20.1 | 
O=c1[nH]cc(F)c(=O)[nH]1 [Compound 5-FU, 5-fluorouracil, reference compound] |  |  | 63.5 ± 4.92 | 80.1 ± 6.61 | 86.3 ± 8.3 | 
COc1cccc(/C=N/NC(=O)c2ccc3c([nH]c4ccccc43)c2C)c1O [Compound 2021-7e] |  |  |  |  |  | IC50 (A875 (human melanoma) [9]): 4.15 µM; IC50 [10]: 26.6 µM
CC(C(=O)NN=Cc1ccc2c(c1)OCO2)c1ccc2c(c1)[nH]c1ccc(Cl)cc12 (stereo not drawn) [Compound 14c, N'-(Benzo[d][1,3]dioxol-5-ylmethylene)-2-(6-chloro-9H-carbazol-2-yl)propanehydrazide] |  | 240 |  | > 40 | > 40 | 
